Results as given in patent US20120142718A1 (priority 2007, published 2012).
Like-named read-outs stand apart in the source and are kept apart here.

Assays:
[1] = assay type: physicochemical
μ-opioid receptor = biological target: T1, μ-opioid receptor (Homo sapiens, UniProt P35372); test: biochemical; assay type: binding
T1 construct: expressed in transfected cells; host or cells: HEK-293 cells

[2] = male, Sprague-Dawley, rat, in vivo, 20 mg/kg

T1 sequence (P35372 whole entry): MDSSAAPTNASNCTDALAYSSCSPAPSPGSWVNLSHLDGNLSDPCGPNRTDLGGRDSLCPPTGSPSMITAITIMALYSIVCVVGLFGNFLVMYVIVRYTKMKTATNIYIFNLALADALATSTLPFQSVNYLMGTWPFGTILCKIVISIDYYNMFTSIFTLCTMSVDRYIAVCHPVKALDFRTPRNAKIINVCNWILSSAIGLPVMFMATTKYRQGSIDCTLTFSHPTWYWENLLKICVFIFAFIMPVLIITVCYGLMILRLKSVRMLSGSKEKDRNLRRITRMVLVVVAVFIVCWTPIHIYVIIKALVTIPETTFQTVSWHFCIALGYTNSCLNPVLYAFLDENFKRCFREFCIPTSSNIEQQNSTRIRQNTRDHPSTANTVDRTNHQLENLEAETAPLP

CN(CCN)C(=O)Oc1ccc(C[N+]2(C)CC[C@]34c5c6ccc(O)c5OC3C(=O)CCC4[C@H]2C6)cc1.Cl.[Cl-] (stereo partly shown) [Compound A]
% production of hydromorphone 20 hrs ([1]; pH 7.5): 70% | % production of hydromorphone 20 hrs ([1]; pH 10): 100%

CN(CCNC(=O)[C@@H](N)CCCNC(=N)N)C(=O)Oc1ccc(C[N@@+]2(C)CC[C@]34c5c6ccc(O)c5O[C@H]3C(=O)CC[C@H]4[C@H]2C6)cc1 [Example 1]
IC50 (μ-opioid receptor): 250 nM

COc1ccc2c3c1O[C@H]1C(=O)CC[C@H]4[C@@H](C2)N(C)CC[C@]314 [Hydrocodone]
Cmax HC (ng/ml) following PO dosing [2]: 23.6 ng/mL
